# Laboratory results reported in ChEMBL document CHEMBL3885881, “DrugMatrix”.
# Organism: Rattus norvegicus
# Assay: DrugMatrix - Regimen: Daily Repeat
# Format: toxicity, organism-based, Sprague-Dawley
# Set-up: regimen Daily Repeat, gender Male, age 6-8 weeks
# Details: in vivo, po, route oral GAVAGE, vehicle 100 % WATER; for ABSOLUTE BASOPHIL / ABSOLUTE EOSINOPHIL / ABSOLUTE LYMPHOCYTE / ABSOLUTE MONOCYTE / ABSOLUTE SEGMENTED NEUTROPHIL / BASOPHIL / EOSINOPHIL / ERYTHROCYTE COUNT / HEMATOCRIT / HEMOGLOBIN / LEUKOCYTE COUNT / LYMPHOCYTE / MEAN CORPUSCULAR HEMOGLOBIN / MEAN CORPUSCULAR HEMOGLOBIN CONCENTRATION / MEAN CORPUSCULAR VOLUME / MONOCYTE / NEUTROPHIL / NUCLEATED RED BLOOD CELLS / PLATELET COUNT: tissue Blood; for ALANINE AMINOTRANSFERASE / ALBUMIN / ALKALINE PHOSPHATASE / ASPARTATE AMINOTRANSFERASE / BLOOD UREA NITROGEN / CARBON DIOXIDE / CHLORIDE / CHOLESTEROL / CREATINE PHOSPHOKINASE / CREATININE / GLUCOSE / LACTATE DEHYDROGENASE / LIPASE / PHOSPHORUS / SODIUM / TOTAL BILIRUBIN / TOTAL PROTEIN / URIC ACID: tissue Plasma
# [1] = 200 mg/kg, 120 h, dose level Low, time 5 day
# [2] = 1100 mg/kg, 72 h, dose level High, time 3 day
# [3] = 1100 mg/kg, 120 h, dose level High, time 5 day
smiles,measurement,setting,value
CC1(C)S[C@@H]2[C@H](NC(=O)[C@H](N)c3ccc(O)cc3)C(=O)N2[C@H]1C(=O)O [AMOXICILLIN],ABSOLUTE BASOPHIL,[1],0 CELLS/uL
same,ABSOLUTE EOSINOPHIL,[1],0 CELLS/uL
same,ABSOLUTE LYMPHOCYTE,[1],6222 CELLS/uL
same,ABSOLUTE MONOCYTE,[1],124 CELLS/uL
same,ABSOLUTE SEGMENTED NEUTROPHIL,[1],487.33 CELLS/uL
same,BASOPHIL,[1],0%
same,EOSINOPHIL,[1],0%
same,ERYTHROCYTE COUNT,[1],5.52 x10E6/uL
same,HEMATOCRIT,[1],34.17%
same,HEMOGLOBIN,[1],13.17 G/DL
same,LEUKOCYTE COUNT,[1],6.83 x10E3/uL
same,LYMPHOCYTE,[1],90.67%
same,MEAN CORPUSCULAR HEMOGLOBIN,[1],23.87 pg
same,MEAN CORPUSCULAR HEMOGLOBIN CONCENTRATION,[1],38.53 G/DL
same,MEAN CORPUSCULAR VOLUME,[1],61.87 fL
same,MONOCYTE,[1],2%
same,NEUTROPHIL,[1],7.33%
same,NUCLEATED RED BLOOD CELLS,[1],0 /100WBC
same,PLATELET COUNT,[1],1169.67 x10E3/uL
same,ALANINE AMINOTRANSFERASE,[1],61.67 u/L
same,ALBUMIN,[1],4.07 G/DL
same,ALKALINE PHOSPHATASE,[1],419.67 u/L
same,ASPARTATE AMINOTRANSFERASE,[1],85.33 u/L
same,BLOOD UREA NITROGEN,[1],19 mg/dL
same,CARBON DIOXIDE,[1],35 mmol/L
same,CHLORIDE,[1],99.33 MEQ/L
same,CHOLESTEROL,[1],64.33 mg/dL
same,CREATINE PHOSPHOKINASE,[1],366.67 u/L
same,CREATININE,[1],0.22 mg/dL
same,GLUCOSE,[1],133.67 mg/dL
same,LACTATE DEHYDROGENASE,[1],112.33 u/L
same,LIPASE,[1],9 u/L
same,PHOSPHORUS,[1],11.07 mg/dL
same,SODIUM,[1],143.8 MEQ/L
same,TOTAL BILIRUBIN,[1],0.17 mg/dL
same,TOTAL PROTEIN,[1],6.17 G/DL
same,URIC ACID,[1],0.73 mg/dL
same,ABSOLUTE BASOPHIL,[2],0 CELLS/uL
same,ABSOLUTE EOSINOPHIL,[2],0 CELLS/uL
same,ABSOLUTE LYMPHOCYTE,[2],13682.33 CELLS/uL
same,ABSOLUTE MONOCYTE,[2],492.67 CELLS/uL
same,ABSOLUTE SEGMENTED NEUTROPHIL,[2],958.33 CELLS/uL
same,BASOPHIL,[2],0%
same,EOSINOPHIL,[2],0%
same,ERYTHROCYTE COUNT,[2],6.16 x10E6/uL
same,HEMATOCRIT,[2],39.43%
same,HEMOGLOBIN,[2],14.47 G/DL
same,LEUKOCYTE COUNT,[2],15.13 x10E3/uL
same,LYMPHOCYTE,[2],90%
same,MEAN CORPUSCULAR HEMOGLOBIN,[2],23.5 pg
same,MEAN CORPUSCULAR HEMOGLOBIN CONCENTRATION,[2],36.7 G/DL
same,MEAN CORPUSCULAR VOLUME,[2],64.03 fL
same,MONOCYTE,[2],3.33%
same,NEUTROPHIL,[2],6.67%
same,NUCLEATED RED BLOOD CELLS,[2],0 /100WBC
same,PLATELET COUNT,[2],1311.33 x10E3/uL
same,ALANINE AMINOTRANSFERASE,[2],52.33 u/L
same,ALBUMIN,[2],4.43 G/DL
same,ALKALINE PHOSPHATASE,[2],365.33 u/L
same,ASPARTATE AMINOTRANSFERASE,[2],83 u/L
same,BLOOD UREA NITROGEN,[2],16.33 mg/dL
same,CARBON DIOXIDE,[2],32 mmol/L
same,CHLORIDE,[2],101.33 MEQ/L
same,CHOLESTEROL,[2],79.67 mg/dL
same,CREATINE PHOSPHOKINASE,[2],343 u/L
same,CREATININE,[2],0.2 mg/dL
same,GLUCOSE,[2],138 mg/dL
same,LACTATE DEHYDROGENASE,[2],129.67 u/L
same,LIPASE,[2],9.33 u/L
same,PHOSPHORUS,[2],12.4 mg/dL
same,SODIUM,[2],142.9 MEQ/L
same,TOTAL BILIRUBIN,[2],0.17 mg/dL
same,TOTAL PROTEIN,[2],6.17 G/DL
same,URIC ACID,[2],2.13 mg/dL
same,ABSOLUTE BASOPHIL,[3],0 CELLS/uL
same,ABSOLUTE EOSINOPHIL,[3],0 CELLS/uL
same,ABSOLUTE LYMPHOCYTE,[3],7076 CELLS/uL
same,ABSOLUTE MONOCYTE,[3],76 CELLS/uL
same,ABSOLUTE SEGMENTED NEUTROPHIL,[3],448 CELLS/uL
same,BASOPHIL,[3],0%
same,EOSINOPHIL,[3],0%
same,ERYTHROCYTE COUNT,[3],6.01 x10E6/uL
same,HEMATOCRIT,[3],37.2%
same,HEMOGLOBIN,[3],14.1 G/DL
same,LEUKOCYTE COUNT,[3],7.6 x10E3/uL
same,LYMPHOCYTE,[3],92.33%
same,MEAN CORPUSCULAR HEMOGLOBIN,[3],23.5 pg
same,MEAN CORPUSCULAR HEMOGLOBIN CONCENTRATION,[3],37.9 G/DL
same,MEAN CORPUSCULAR VOLUME,[3],61.93 fL
same,MONOCYTE,[3],1%
same,NEUTROPHIL,[3],6.67%
same,NUCLEATED RED BLOOD CELLS,[3],0 /100WBC
same,PLATELET COUNT,[3],1145.67 x10E3/uL
same,ALANINE AMINOTRANSFERASE,[3],59.33 u/L
same,ALBUMIN,[3],4.43 G/DL
same,ALKALINE PHOSPHATASE,[3],434 u/L
same,ASPARTATE AMINOTRANSFERASE,[3],94.33 u/L
same,BLOOD UREA NITROGEN,[3],17.33 mg/dL
same,CARBON DIOXIDE,[3],33 mmol/L
same,CHLORIDE,[3],100.33 MEQ/L
same,CHOLESTEROL,[3],75 mg/dL
same,CREATINE PHOSPHOKINASE,[3],622.67 u/L
same,CREATININE,[3],0.12 mg/dL
same,GLUCOSE,[3],113 mg/dL
same,LACTATE DEHYDROGENASE,[3],161.33 u/L
same,LIPASE,[3],9 u/L
same,PHOSPHORUS,[3],10.27 mg/dL
same,SODIUM,[3],144.67 MEQ/L
same,TOTAL BILIRUBIN,[3],0.13 mg/dL
same,TOTAL PROTEIN,[3],5.67 G/DL
same,URIC ACID,[3],0.8 mg/dL
